# Source: patent US8349316B2, “Lactobacillus fermentum SG-A95 for improving oral bacterial groups and health care compositions thereof” (priority 2010, dated 2013)
# What was measured:
# [1] = system: artificially induced periodontal disease (ligature wire, Streptococcus mutans inoculated in gum tissue); assay: Evaluation of preventive effect for animal periodontal disease; format: in vivo, Balb/c mice; settings: prevention group; for mice periodontal pocket depth: mean±S.D., listed as pTC
# Experimental: (§1) This trial included treatment groups and control groups. The-treatment group of Lactobacillus fermentum SG-A95 were divided into 6 groups as follows: 3 groups of dialyzed Lactobacillus fermentum SG-A95 fermentation product concentrate such as 4-fold, 2-fold, and 1-fold (unconcentrated fermentation broth) and 3 groups of Lactobacillus fermentum SG-A95 in various numbers of bacteria such as 1×10^9, 2×10^9 and 5×10^9. Two control groups were treated with 0.267 mg/mL of tetracycline and distilled water.
# Twelve of 8-week-old female Balb/c mice were selected for each group (Table 2). The mice were administered with various concentrations of Lactobacillus fermentum SG-A95 fermentation product or live Lactobacillus fermentum SG-A95, and 1 mL of 0.267 mg/mL tetracyccline or distilled water separately. […] Their pathological symptoms were observed and recorded until sacrificing all animals. Until the control group (feeding with distilled water, mock-treated group) showing gum swelling and dental plaque appearance diagnosed by chief dentists, the ligature wire was removed and inoculation of dental pathogen was stopped. At day 4, 8, 12, and 16 after wire removal, mice periodontal pocket depth was examined, 3 mice from each group were killed for blood sampling and samples were collected for histological analysis.
# (§2) Control group was used as a standard to examine subjects from each group by Mann-Whitney test.
# (§3) Experimental data was shown as mean±S.D. The statistical variation of treatment groups and control groups of mice periodontal pocket was performed by One-Way ANOVA and Dunnett multiple post hoc comparison in longitudinal study, and by One-Way ANOVA and LSD multiple post hoc comparison in cross-sectional study. Besides, Mann-Whitney test was used to examine the number of periodontal pocket improving individuals. The statistical significance level of p value was 0.05.
# [2] = system: artificially induced periodontal disease (ligature wire, Streptococcus mutans inoculated in gum tissue); assay: Evaluation of therapeutic effect for animal periodontal disease; format: in vivo, Balb/c mice; settings: treatment group; for mice periodontal pocket depth: mean±S.D.
# Experimental: as §1
# Twelve of 8-week-old female Balb/c mice were selected for each group (Table 3). […] After diagnosis of diseased tissue by chief dentists, they were administered different concentrations of Lactobacillus fermentum SG-A95 fermentation product, live Lactobacillus fermentum SG-A95, 1 mL of 0.267 mg/mL tetracycline or distill water every day. The symptoms were recorded. The wire was removed at the beginning of the treatment and stop periodontal pathogen inoculation. At day 4, 8, 12, and 16 after wire removal, mice periodontal pocket depth was examined. 3 mice from each group were killed for blood sampling and histological analysis.
# as §2, §3
# [3] = system: Actinomyces viscosus (ATCC 15987); assay: Disc agar diffusion test; format: cell-based; settings: 6 mm paper disc, 37, anaerobic, 24 hours, mean±S.D. (n=3); zone not over 6 mm = negative
# Experimental: (§4) Lactobacillus fermentum SG-[…] was cultured in liquid medium. MRS medium was used in this embodiment. […]. The fermentation broth was concentrated into 30-fold of original concentration and dialyzed with SPECTRA/POR® Dialysis Membrane (MWCO:3500, Spectrum Laboratories Inc, CA) for 48 hours. Lactobacillus fermentum SG-[…] and concentrate fermentation product were diluted into various concentrations according to experimental requirements. Disc agar diffusion test, broth dilution method, and co-cultivation test of Lactobacillus fermentum SG-[…] with Streptococcus mutans (ATCC 25175), Streptococcus sanguis (ATCC 49295), Porphyromonas gingivalis (ATCC 33277), and Actinomyces viscosus (ATCC 15987) were separately performed to understand the inhibition of pathogen growth. Above four pathogens strains were purchased from Bioresource Collection and Research Center of Food Industry Research and Development Institute in Taiwan or ATCC. […] Dip bacteria culture with sterile cotton swab for 3 seconds, and each bacteria was smeared on agar plates in three directions to evenly distribute the incoculum. After dialyzing 30-fold fermentation product of Lactobacillus fermentum SG-[…], adjust concentrate to 4-fold concentrate (LFP4), 2-fold concentrate (LFP2) and 1-fold (LFP1) (unconcentrated fermentation broth). […] The diameter of sterile paper disc was 6 mm. The positive bacterial inhibition effect was determined by over 6 mm bacterial inhibition zone. Otherwise, it was defined as negative bacterial inhibition effect. The cultural condition was under the temperature of 37 for 24 hours. The paper disc was used in control group containing tetracycline. The inhibition zone value was shown as mean±S.D. (n=3).
# [4] = system: Streptococcus sanguis (ATCC 49295); assay: Disc agar diffusion test; format: cell-based; settings: 6 mm paper disc, 37, anaerobic, 24 hours, mean±S.D. (n=3); zone not over 6 mm = negative
# Experimental: as §4
# [5] = system: Porphyromonas gingivalis (ATCC 33277); assay: Disc agar diffusion test; format: cell-based; settings: 6 mm paper disc, 37, anaerobic, 24 hours, mean±S.D. (n=3); zone not over 6 mm = negative
# Experimental: as §4
# [6] = system: Streptococcus mutans (ATCC 25175); assay: Disc agar diffusion test; format: cell-based; settings: 6 mm paper disc, 37, anaerobic, 24 hours, mean±S.D. (n=3); zone not over 6 mm = negative
# Experimental: as §4
compound,measurement,setting,value
CN(C)[C@@H]1C(O)=C(C(N)=O)C(=O)[C@@]2(O)C(O)=C3C(=O)c4c(O)cccc4[C@@](C)(O)[C@H]3C[C@@H]12 [tetracycline],periodontal pocket improvement percentage (percentage of improving individual),"[1]; Day 4, against pMT by Mann-Whitney test",62%
same,mice periodontal pocket depth,[1]; Day 4 after wire removal,0.84 ± 0.50 mm
same,periodontal pocket improvement percentage (percentage of improving individual),"[1]; Day 8, against pMT by Mann-Whitney test",50%
same,mice periodontal pocket depth,[1]; Day 8 after wire removal,0.70 ± 0.34 mm
same,periodontal pocket improvement percentage (percentage of improving individual),"[1]; Day 12, against pMT by Mann-Whitney test",71%
same,mice periodontal pocket depth,[1]; Day 12 after wire removal,0.56 ± 0.26 mm
same,periodontal pocket improvement percentage (percentage of improving individual),"[1]; Day 16, against pMT by Mann-Whitney test",100%
same,mice periodontal pocket depth,[1]; Day 16 after wire removal,0.49 ± 0.25 mm
same,periodontal pocket improvement percentage (percentage of improving individual),"[2]; Day 4, against tMT by Mann-Whitney test",30%
same,mice periodontal pocket depth,"[2]; Day 4 after wire removal, listed as pTC",1.05 ± 0.64 mm
same,mice periodontal pocket depth,"[2]; Day 4 after wire removal, listed as tTC",1.05 ± 0.64 mm
same,periodontal pocket improvement percentage (percentage of improving individual),"[2]; Day 8, against tMT by Mann-Whitney test",20%
same,mice periodontal pocket depth,"[2]; Day 8 after wire removal, listed as pTC",0.89 ± 0.44 mm
same,mice periodontal pocket depth,"[2]; Day 8 after wire removal, listed as tTC",0.89 ± 0.44 mm
same,periodontal pocket improvement percentage (percentage of improving individual),"[2]; Day 12, against tMT by Mann-Whitney test",47%
same,mice periodontal pocket depth,[2]; Day 12 after wire removal,0.63 ± 0.37 mm
same,periodontal pocket improvement percentage (percentage of improving individual),"[2]; Day 16, against tMT by Mann-Whitney test",33%
same,mice periodontal pocket depth,"[2]; Day 16 after wire removal, listed as pTC",0.61 ± 0.34 mm
same,mice periodontal pocket depth,"[2]; Day 16 after wire removal, listed as tTC",0.48 ± 0.33 mm
same,"Bacterial inhibition zone, Actinomyces viscosus",[3],48.2 ± 2.4 mm
same,"Bacterial inhibition zone, Streptococcus sanguis",[4],25.9 ± 1.2 mm
same,"Bacterial inhibition zone, Porphyromonas gingivalis",[5],33.4 ± 2.2 mm
same,"Bacterial inhibition zone, Streptococcus mutans",[6],29.7 ± 2.0 mm
